We go through 13 compounds from US12441727B2, “Tricyclic compounds as inhibitors of KRAS” (Incyte Corporation, priority 2021, dated 2025).

The target of data set [1] is KRAS G12C (Homo sapiens, UniProt P01116, G12C). Put plainly: GDP-GTP exchange assay (KRAS_G12C exchange assay). The data set is classed as biochemical. Particulars: bodipy-loaded KRAS G12C 2.5 nM, SOS1 150 nM, 2 hours pre-incubation with inhibitor; read-out: G12C_exchange. A digest of the protocol: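 Bodipy-GDP-loaded KRAS G12C (2.5 nM final) preincubated 2 hours with compound in 25 mM Hepes pH 7.5, 50 mM NaCl, 10 mM MgCl2, 0.01% Brij-35; exchange started with 500 uM GppNHp and 150 nM SOS1, run 2 hours at ambient temperature. Fluorescence read at 485/520 nm; IC50 by four-parameter logistic fit.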

In data set [2] the test system is KRAS_G12C pERK. Nature of the data set: Cellular pERK HTRF assay (KRAS_G12C pERK assay). Particulars: KRAS G12C cells, 4 hours incubation with compound, read-out: G12C_pERK. Type of data set: cell-based, human. The gist of the method: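 KRAS-mutant (G12C, G12D, G12V) and KRAS WT cancer cell lines, plated overnight in RPMI/10% FBS, were treated with compound (0.1% DMSO) at 37 °C for 4 h (G12C, G12V) or 2 h (G12D). Lysates were probed with anti-phospho-ERK1/2 HTRF antibody pair read at 665/620 nm; IC50 fitted.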
For orientation: TR-FRET usually uses a lanthanide donor and a delayed reading to cut background.

Data set [3] concerns KRAS_G12C pERK in MIA PaCa-2 cells. Put plainly: Whole Blood pERK1/2 HTRF assay (KRAS_G12C WB pERK assay). The data set is classed as cell-based, human. Particulars: compound in whole blood, 4 hours, read-out: G12C_WB_pERK. The protocol: MIA PaCa-2 cells (KRAS G12C; ATCC® CRL-1420), HPAF-II (KRAS G12D; ATCC® CRL-1997) and YAPC (KRAS G12V; DSMZ ACC382) are maintained in RPMI 1640 with 10% FBS (Gibco/Life Technologies). For MIA PaCa-2 assay, cells are seeded into 96 well tissue culture plates (Corning #3596) at 25000 cells per well in 100 uL media and cultured for 2 days at 37° C., 5% CO2 before the assay. For HPAF-II and YAPC assay, cells are seeded in 96 well tissue culture plates at 50000 cells per well in 100 uL media and cultured for 1 day before the assay. Whole Blood are added to the 1 uL dots of compounds (prepared in DMSO) in 96 well plates and mixed gently by pipetting up and down so that the concentration of the compound in blood is 1× of desired concentration, in 0.5% DMSO. The media is aspirated from the cells and 50 uL per well of whole blood with test compound is added and incubated for 4 hours for MIA PaCa and YAPC assay; or 2 hours for HPAF-II assay, respectively at 37° C., 5% CO2. After dumping the blood, the plates are gently washed twice by adding PBS to the side of the wells and dumping the PBS from the plate onto a paper towel, tapping the plate to drain well. Fifty ul/well of 1× lysis buffer #1 (Cisbio) with blocking reagent (Cisbio) and Benzonase nuclease (Sigma Cat #E1014-5KU, 1:10000 final concentration) is then added and incubated at room temperature for 30 minutes with shaking (250 rpm). Following lysis, 16 uL of lysate is transferred into 384-well Greiner small volume white plate using an Assist Plus (Integra Biosciences, NH). Four uL of 1:1 mixture of anti Phospho-ERK 1/2 d2 and anti Phospho-ERK 1/2 Cryptate (Cisbio) is added to the wells using the Assist Plus and incubated at room temperature overnight in the dark. Plates are read on the Pherastar plate reader at 665 nm and 620 nm wavelengths. Data are analyzed in Genedata Screener using SmartFit for IC50 values.

Data set [4] can be described thus: Human whole blood stability. The note with it: percent remaining at 4 hr, 1 μM, 37° C. Type of data set: in vitro ADME. The protocol: The whole blood stability of the exemplified compounds was determined by LC-MS/MS. The 96-Well Flexi-Tier™ Block (Analytical Sales & Services, Inc, Flanders, NJ) is used for the incubation plate containing 1.0 mL glass vials with 0.5 mL of blood per vial (pooled gender, human whole blood sourced from BIOIVT, Hicksville, NY or similar). Blood is pre-warmed in water bath to 37° C. for 30 minutes. 96-deep well analysis plate is prepared with the addition of 100 μL ultrapure water/well. 50 μL chilled ultrapure water/well is added to 96-deep well sample collection plate and covered with a sealing mat. 1 μL of 0.5 mM compound working solution (DMSO:water) is added to the blood in incubation plate to reach final concentrations of 1 μM, mixed by pipetting thoroughly and 50 μL is transferred 50 into the T=0 wells of the sample collection plate. Blood is allowed to sit in the water for 2 minutes and then 400 μL stop solution/well is added (acetonitrile containing an internal standard). The incubation plate is placed in the Incu-Shaker CO2 Mini incubator (Benchmark Scientific, Sayreville, NJ) at 37° C. with shaking at 150 rpm. At 1, 2 and 4-hr, the blood samples are mixed thoroughly by pipetting and 50 μL is transferred into the corresponding wells of the sample collection plate. Blood is allowed to sit in the water for 2 minutes and then 400 μL of stop solution/well is added. The collection plate is sealed and vortexed at 1700 rpm for 3 minutes (VX-2500 Multi-Tube Vortexer, VWR International, Radnor, PA), and samples are then centrifuged in the collection plate at 3500 rpm for 10 minutes (Allegra X-14R Centrifuge Beckman Coulter, Indianapolis, IN). 100 μL of supernatant/well is transferred from the sample collection plate into the corresponding wells of the analysis plate. The final plate is vortexed at 1700 rpm for 1 minute and analyze samples by LC-MS/MS. The peak area ratio of the 1, 2, and 4 hr samples relative to T=0 is used to determine the percent remaining. The natural log of the percent remaining versus time is used determine a slope to calculate the compounds half-life in blood (t1/2=0.693/slope).

Like-named read-outs stand apart in the source and are kept apart here.

Chain of KRAS G12C (P01116 1-188 isoform P01116-2 G12C): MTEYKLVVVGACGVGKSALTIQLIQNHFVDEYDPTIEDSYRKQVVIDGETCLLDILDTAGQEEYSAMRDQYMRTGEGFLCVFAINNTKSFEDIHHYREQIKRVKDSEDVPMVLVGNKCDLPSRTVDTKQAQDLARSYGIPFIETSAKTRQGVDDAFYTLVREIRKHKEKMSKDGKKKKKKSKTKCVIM

`CN(C)C1(C)CN(c2nc3c(Cl)c(-c4ccc(F)c5cccnc45)c(Cl)cc3c3c2nnn3[C@H]2CCN(C(=O)/C=C/CF)[C@H](CC#N)C2)C1` (single isomer, unassigned) [Example 19a]: the IC50 in data set [1] is at most 50 nM; in data set [2] (Homo sapiens, 4 h) it was at most 50 nM; in data set [3] (Homo sapiens), at most 50 nM. Moreover, the “Human whole blood stability at 4 hr” value in data set [4] is on record as “†† (WBS >70% but ≤90%)”.
As to `COC/C=C/C(=O)N1CC[C@H](n2nnc3c(N4CC(C)(N(C)C)C4)nc4c(F)c(-c5ccc(F)c6cccnc56)c(C(F)(F)F)cc4c32)C[C@H]1CC#N` (single isomer, unassigned) [Example 20], the IC50 in data set [1] was at most 50 nM; in data set [2] (Homo sapiens, 4 h) it was at most 50 nM; in data set [3] (Homo sapiens) it was 100 to 1000 nM. Further, the “Human whole blood stability at 4 hr” value in data set [4] is listed as “††† (WBS >90%)”.
Consider `COC/C=C/C(=O)N1CC[C@H](n2nnc3c(O[C@@H](C)[C@@H]4CCCN4C)nc4c(F)c(-c5cnc(C)c6ccccc56)c(C)cc4c32)C[C@H]1CC#N` (single isomer, unassigned) [Example 26b], for which the IC50 in data set [1] was at most 50 nM; in data set [2], at most 50 nM; in data set [3], 50 to 100 nM. The “Human whole blood stability at 4 hr” value in data set [4] is given as “†† (WBS >70% but ≤90%)”.
For `C=CC(=O)N1CC[C@H](n2nnc3c(O[C@@H](C)[C@@H]4CCCN4C)nc4c(F)c(-c5cccc6c5c(CC#N)nn6C)c(C)cc4c32)C[C@H]1C` (single isomer, unassigned) [Example 28b], the IC50 in data set [1] was at most 50 nM; in data set [2] (Homo sapiens, 4 h), at most 50 nM; in data set [3] (Homo sapiens) it was 50 to 100 nM. The “Human whole blood stability at 4 hr” value in data set [4] is “†† (WBS >70% but ≤90%)”.
On to `C=C(F)C(=O)N1CC[C@H](n2nnc3c(N4CC(C)(N(C)CC)C4)nc4c(F)c(-c5c(C)c(F)cc6[nH]ncc56)c(C)cc4c32)C[C@H]1CC#N` (single isomer, unassigned) [Example 29], for which the IC50 is at most 50 nM in data set [1]; at most 50 nM in data set [2] (Homo sapiens, 4 h); 100 to 1000 nM in data set [3] (Homo sapiens). Also, in data set [4], the “Human whole blood stability at 4 hr” value is listed as “††† (WBS >90%)”.
On to `C=C(F)C(=O)N1CC[C@H](n2nnc3c(N4CC(C)(N(C)CC)C4)nc4c(F)c(-c5c(C)c(C)cc6[nH]ncc56)c(C)cc4c32)C[C@H]1CC#N` (single isomer, unassigned) [Example 30], for which the IC50 is at most 50 nM in data set [1]; at most 50 nM in data set [2] (Homo sapiens, 4 h); 50 to 100 nM in data set [3] (Homo sapiens). Moreover, in data set [4], the “Human whole blood stability at 4 hr” value was “††† (WBS >90%)”.
With `C=CC(=O)N1CC[C@H](n2nnc3c(O[C@@H](C)[C@@H]4CCCN4C)nc4c(F)c(-c5cccc6c5c(CC#N)cn6C)c(C)cc4c32)C[C@H]1C` (single isomer, unassigned) [Example 31b], the IC50 in data set [1] is at most 50 nM; in data set [2] (Homo sapiens, 4 h) it was at most 50 nM; in data set [3] (Homo sapiens) it was 50 to 100 nM. Moreover, in data set [4], the “Human whole blood stability at 4 hr” value is given as “†† (WBS >70% but ≤90%)”.
With `C=CC(=O)N1CCC(n2nnc3c(O[C@@H](C)[C@@H]4CCCN4C)nc4c(F)c(-c5cccc6c5c(CC#N)cn6C)c(C)cc4c32)CC1` (single isomer, unassigned) [Example 32b], the IC50 in data set [1] was at most 50 nM; in data set [2] (Homo sapiens, 4 h), at most 50 nM; in data set [3] (Homo sapiens), at most 50 nM. For the same compound, the “Human whole blood stability at 4 hr” value in data set [4] is reported as “†† (WBS >70% but ≤90%)”.
In the case of `C=C(F)C(=O)N1CC[C@H](n2nnc3c(N4CC(C)(N(C)CC)C4)nc4c(F)c(-c5c(C)c(C)cc6[nH]ncc56)c(Cl)cc4c32)C[C@H]1CC#N` (single isomer, unassigned) [Example 33a], the IC50 in data set [1] was at most 50 nM; in data set [2] (Homo sapiens, 4 h), at most 50 nM; in data set [3] (Homo sapiens) it was 50 to 100 nM. In addition, the “Human whole blood stability at 4 hr” value in data set [4] is given as “†† (WBS >70% but ≤90%)”.
Consider `C=C(F)C(=O)N1CC[C@H](n2nnc3c(N4CC(C)(N(C)CC)C4)nc4c(F)c(-c5c(C)c(F)cc6[nH]ncc56)c(Cl)cc4c32)C[C@H]1CC#N` (single isomer, unassigned) [Example 35a], for which the IC50 in data set [1] was at most 50 nM; in data set [2] (Homo sapiens, 4 h), at most 50 nM; in data set [3] (Homo sapiens) it was 50 to 100 nM. Also, the “Human whole blood stability at 4 hr” value in data set [4] is “††† (WBS >90%)”.
`Cc1cc2c(nc(O[C@@H](C)[C@@H]3CCCN3C)c3nnn([C@H]4CCN(C(=O)/C=C/CF)[C@H](CC#N)C4)c32)c(F)c1-c1ccc2cnn(C)c2c1` [Example 7, 2-((2S,4S)-4-(6-fluoro-8-methyl-7-(1-methyl-1H-indazol-6-yl)-4-((S)-1-((S)-1-methylpyrrolidin-2-yl)ethoxy)-1H-[1,2,3]triazolo[4,5-c]quinolin-1-yl)-1-((E)-4-fluorobut-2-enoyl)piperidin-2-yl)acetonitrile]: the IC50 is at most 50 nM in data set [1]; at most 50 nM in data set [2] (Homo sapiens, 4 h); at most 50 nM in data set [3] (Homo sapiens). In addition, in data set [4], the “Human whole blood stability at 4 hr” value was “††† (WBS >90%)”.
In the case of `Cc1ccc(-c2c(C)cc3c(nc(O[C@@H](C)[C@@H]4CCCN4C)c4nnn([C@H]5CCN(C(=O)/C=C/CF)[C@H](CC#N)C5)c43)c2F)cn1` [Example 8, 2-((2S,4S)-4-(6-fluoro-8-methyl-7-(6-methylpyridin-3-yl)-4-((S)-1-((S)-1-methylpyrrolidin-2-yl)ethoxy)-1H-[1,2,3]triazolo[4,5-c]quinolin-1-yl)-1-((E)-4-fluorobut-2-enoyl)piperidin-2-yl)acetonitrile], the IC50 was at most 50 nM in data set [1]; at most 50 nM in data set [2] (Homo sapiens, 4 h); at most 50 nM in data set [3] (Homo sapiens). Also, in data set [4], the “Human whole blood stability at 4 hr” value is reported as “†† (WBS >70% but ≤90%)”.
For `COC/C=C/C(=O)N1CC[C@H](n2nnc3c(O[C@@H](C)[C@@H]4CCCN4C)nc4c(F)c(-c5ccc(F)cc5)c(C)cc4c32)C[C@H]1CC#N` [Example 10, 2-((2S,4S)-4-(6-fluoro-7-(4-fluorophenyl)-8-methyl-4-((S)-1-((S)-1-methylpyrrolidin-2-yl)ethoxy)-1H-[1,2,3]triazolo[4,5-c]quinolin-1-yl)-1-((E)-4-methoxybut-2-enoyl)piperidin-2-yl)acetonitrile], the IC50 in data set [1] was at most 50 nM; in data set [2] (Homo sapiens, 4 h), at most 50 nM; in data set [3] (Homo sapiens), at most 50 nM. Moreover, the “Human whole blood stability at 4 hr” value in data set [4] is given as “††† (WBS >90%)”.
